Laboratory results: PubChem BioAssay AID493095 (Sanford-Burnham Center for Chemical Genomics, 2011)
pIC50: −log10 of the molar value.

Experiment: cell-free peptide binding blockers, HIV fusion – biochemical, set 2, fluorescence quenching, SAR follow-up (AID 493095)
Conditions: 30 min

| SMILES | pIC50 |
| --- | --- |
| CCc1ccc(-n2cccc2/C=C2/C(=N)N3C(=NC2=O)SN=C3S(C)(=O)=O)cc1 | 4.28 |
| O=C(O)CCCN1C(=O)/C(=C\c2ccc(-c3ccc(F)cc3)o2)SC1=S | 4.96 |
| CS(=O)(=O)C1=NSC2=NC(=O)/C(=C\c3cccn3-c3ccc(F)cc3)C(=N)N21 | 5.03 |
| COc1ccccc1NS(=O)(=O)c1ccc2c(c1)C1C=CCC1C(c1ccc(C(=O)O)cc1)N2 (centres undefined) | 4.16 |
| COc1cccc(C2C(C(=O)Nc3ccccc3)=C(C)N=c3sc(=Cc4ccc(OCC(=O)O)cc4)c(=O)n32)c1 (centres undefined) | 5.09 |
| COc1ccc(-n2cccc2/C=C2/C(=N)N3C(=NC2=O)SN=C3S(C)(=O)=O)cc1Cl | 4.92 |
| O=C(O)c1ccc(C[n+]2c(-c3ccc([N+](=O)[O-])cc3)csc2Nc2ccccc2)cc1 | 4.81 |
| CS(=O)(=O)C1=NSC2=NC(=O)/C(=C\c3cccn3-c3ccc(Cl)cc3)C(=N)N21 | 4.60 |
| COc1ccc(-c2ccc(/C=C3\SC(=S)N(CCCC(=O)O)C3=O)o2)cc1 | 4.89 |
| CCOC(=O)C1=C(C)N=c2s/c(=C\c3ccc(OCC(=O)O)cc3)c(=O)n2C1c1ccc(Cl)cc1 (centres undefined) | 5.05 |
| CS(=O)(=O)C1=NSC2=NC(=O)/C(=C\c3cccn3-c3cc(Cl)cc(Cl)c3)C(=N)N21 | 4.52 |
| CCOC(=O)C1=C(C)N=c2sc(=Cc3ccc(OCC(=O)O)cc3)c(=O)n2C1c1ccccc1 (centres undefined) | 4.71 |
| CS(=O)(=O)C1=NSC2=NC(=O)/C(=C\c3cccn3-c3cccc(Cl)c3)C(=N)N21 | 5.04 |
| O=C(O)CCCN1C(=O)/C(=C/c2ccc(-c3ccc(Cl)c(Cl)c3)o2)SC1=S | 4.54 |
| CC1=C(C(=O)OC(C)C)C(c2ccc(Cl)cc2)n2c(s/c(=C\c3ccc(OCC(=O)O)cc3)c2=O)=N1 (centres undefined) | 4.72 |
| O=C(O)CCCN1C(=O)/C(=C\c2ccc(-c3ccc(Cl)cc3)o2)SC1=S | 4.35 |
| O=C(O)c1ccc([C@@H]2Nc3ccc(S(=O)(=O)Nc4cccc5ccccc45)cc3[C@@H]3C=CC[C@@H]32)cc1 | 4.76 |
| CCOC(=O)C1=C(C)N=c2sc(=Cc3ccc(OCC(=O)O)cc3)c(=O)n2C1c1ccc(OC)cc1OC (centres undefined) | 4.70 |
| O=C(O)CCCN1C(=O)/C(=C/c2cc3ccccc3o2)SC1=S | 4.97 |
| CCOC(=O)C1=C(C)N=c2sc(=Cc3ccc(OCC(=O)O)cc3)c(=O)n2C1c1ccccc1OC (centres undefined) | 4.50 |
| CCOc1ccc(-n2cccc2/C=C2/C(=N)N3C(=NC2=O)SN=C3S(C)(=O)=O)cc1 | 4.39 |
| CCOC(=O)C1=C(C)N=c2s/c(=C\c3ccc(OCC(=O)O)cc3)c(=O)n2C1c1ccc(OC)c(OCC)c1 (centres undefined) | 4.64 |
| O=C(O)c1ccc(C2Nc3ccc(S(=O)(=O)Nc4cc(Cl)ccc4Cl)cc3C3C=CCC32)cc1 (centres undefined) | 4.32 |

Molecules with a higher pIC50, results first:

| pIC50 | SMILES |
| --- | --- |
| 5.11 | CCOC(=O)C1=C(C)N=c2sc(=Cc3ccc(OCC(=O)O)cc3)c(=O)n2C1c1cc(OC)c(OC)c(OC)c1 (centres undefined) |
| 5.11 | Cc1c2c(=O)n(-c3nc4ccccc4s3)nc-2cc(O)n1Cc1ccccc1Cl |
| 5.13 | CCOC(=O)C1=C(c2ccccc2)N=c2s/c(=C\c3ccc(OCC(=O)O)cc3)c(=O)n2C1c1cccc(OC)c1 (centres undefined) |
| 5.18 | CS(=O)(=O)C1=NSC2=NC(=O)/C(=C\c3cccn3-c3ccc(Cl)c(Cl)c3)C(=N)N21 |
| 5.20 | COc1cccc(-n2cccc2/C=C2/C(=N)N3C(=NC2=O)SN=C3S(C)(=O)=O)c1 |
| 5.20 | CCOC(=O)C1=C(C)N=c2sc(=Cc3ccc(OCC(=O)O)cc3)c(=O)n2C1c1ccc(F)cc1 (centres undefined) |
| 5.21 | Cc1ccc(-n2cccc2/C=C2/C(=N)N3C(=NC2=O)SN=C3S(C)(=O)=O)cc1 |
| 5.22 | Cc1ccc(-n2cccc2/C=C2/C(=N)N3C(=NC2=O)SN=C3S(C)(=O)=O)cc1C |
| 5.24 | CS(=O)(=O)C1=NSC2=NC(=O)/C(=C\c3cccn3-c3cccc(C(F)(F)F)c3)C(=N)N21 |
| 5.25 | COc1ccc(CCn2c(O)cc3nn(-c4nc5ccccc5s4)c(=O)c-3c2C)cc1 |
| 5.27 | O=C(O)CCCN1C(=O)/C(=C/c2ccc(-c3cccc(C(F)(F)F)c3)o2)SC1=S |
| 5.27 | CS(=O)(=O)C1=NSC2=NC(=O)/C(=C\c3cccn3-c3ccc(Br)cc3)C(=N)N21 |
| 5.37 | O=C(O)CCCN1C(=O)/C(=C\c2ccc(-c3cccc(Cl)c3)o2)SC1=S |
| 5.43 | CS(=O)(=O)C1=NSC2=NC(=O)/C(=C\c3cccn3-c3cccc(F)c3)C(=N)N21 |
| 5.49 | O=C(O)CCCN1C(=O)/C(=C\c2ccc(-c3ccc(Br)cc3)o2)SC1=S |
| 5.86 | O=C(O)CCC(C(=O)O)N1C(=O)/C(=C\c2ccco2)SC1=S (centres undefined) |
